Data: PubChem BioAssay AID1324 (NMMLSC, 2008)
Activity calls are given as the source filed them. How the calls were made is not given here.

These compounds were tested against glutathione S-transferase (GST-GSH binding) (assay: GST–glutathione interaction disruption – biochemical, multiplex beads, flow cytometry, HPSMTB buffer, profiling panel (AID 1324;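 further: glutathione beads loaded with GST-green fluorescent protein and no fluorescent Bim peptide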)). Details: multiplex bead flow cytometry, MCF.
`CN(/N=C/c1ccncc1)C1=NS(=O)(=O)c2ccccc21` showed an EC50 of 3.16 µM.

Same assay, conditions: multiplex bead flow cytometry, MCF, active compounds read high, concentration not given here
`CC(CCc1ccccc1)NC(=O)C1CCN(S(=O)(=O)N2CCCCC2)CC1` (centres undefined) was tested, and the percent span inhibition was “inactive”. For `Cc1cc(C)c(C)c(S(=O)(=O)N2CCN(CC(=O)NC(=O)NCc3ccccc3)CC2)c1C`, the percent span inhibition was “inactive”. For `Cc1ccc(-c2cc(-c3ccccc3Cl)c(C#N)c(N)n2)o1`, the percent span inhibition was “inactive”. `Cc1ccc(C(=O)N(CCCN(C)C)c2nc3ccc(Cl)cc3s2)cc1C` was tested, and the percent span inhibition was “inactive”. `Cc1nonc1NC(=O)CSc1nnc(-c2ccoc2C)n1C` was tested, and the percent span inhibition was “inactive”. `CN(Cc1cccs1)C(=O)CCc1c[nH]c2ccccc12` was tested, and the percent span inhibition was “inactive”. With `CCc1nnc(NC(=O)CSc2nnc(COc3ccc(C)cc3)n2-c2ccccc2)s1` the percent span inhibition was “inactive”. In the case of `Fc1ccc(Cn2nnnc2C(c2ccc(Cl)cc2)N2CCSCC2)cc1` (centres undefined), the percent span inhibition is reported as “inactive”. With `O=C(CC1NCCNC1=O)Nc1cccc([N+](=O)[O-])c1` (centres undefined) the percent span inhibition was “inactive”. For `COc1cc(/C=C2/NC(=O)N(Cc3ccccc3F)C2=O)ccc1O`, the percent span inhibition was “inactive”. In the case of `COC(=O)c1c(NC(=O)COc2ncnc3ccccc23)sc(C)c1C`, the percent span inhibition is reported as “inactive”. For `c1ccc(-c2nc(N3CCOCC3)s[n+]2-c2ccccc2)cc1`, the percent span inhibition was “inactive”. In the case of `CCSc1ncc(Cl)c(C(=O)Nc2sc3c(c2C(=O)NCc2cccnc2)CCCC3)n1`, the percent span inhibition is reported as “inactive”. For `CCOC(=O)c1sc(N)c(C(=O)Nc2ccccc2OC)c1C`, the percent span inhibition was “inactive”. `FC(F)(F)c1ccc2c(c1)C1C=CCC1C(c1ccncc1)N2` (centres undefined) was tested, and the percent span inhibition was “inactive”. `COc1ccc(N2CC(C(=O)Nc3nnc(SCC(=O)c4ccccc4)s3)CC2=O)cc1` (centres undefined) was tested, and the percent span inhibition was “inactive”. In the case of `S=C(Nc1ccc(N2CCOCC2)cc1)Nc1ccc2nc(-c3ccco3)c(-c3ccco3)nc2c1`, the percent span inhibition is reported as “inactive”. In the case of `C=CCSc1nc(N)c2c(C)c(C)sc2n1`, the percent span inhibition is reported as “inactive”. `O=C(/C=C/c1ccc(-c2ccccc2[N+](=O)[O-])o1)c1ccccc1` was tested, and the percent span inhibition was “inactive”. In the case of `Cc1ccc(/C=C/C2=Cc3c(sc(NC(=O)CSc4n[nH]c(N)n4)c3C#N)C(C)(C)C2)o1`, the percent span inhibition is reported as “inactive”. `CCOc1ccc(CNc2ccc(N3CCCC3)cc2)cc1` was tested, and the percent span inhibition was “inactive”. `Cc1cc(C)nc(SCc2cc(=O)c(OC(=O)c3cccc([N+](=O)[O-])c3)co2)n1` was tested, and the percent span inhibition was “inactive”. With `COCCNc1nc(=S)[nH]c2cc(OC)c(OC)cc12` the percent span inhibition was “inactive”. With `CSc1n[nH]c2nc3c(c(=O)n12)C1(CCCC1)Cc1ccccc1-3` the percent span inhibition was “inactive”. `CNC(=O)/C(C#N)=C/c1c(N(Cc2ccccc2)Cc2ccccc2)nc2c(C)cccn2c1=O` was tested, and the percent span inhibition was “inactive”. `CC1=CC(=O)c2ccccc2C1=O` was tested, and the percent span inhibition was “inactive”. For `CCn1c(C)c(/C=N/Nc2nc3ccccc3s2)c2ccccc21`, the percent span inhibition was “inactive”. With `Cc1ccc(S(=O)(=O)NC(=O)COc2ccccc2C)cc1` the percent span inhibition was “inactive”. With `COc1cc(/C=C2\SC(=S)NC2=O)ccc1OS(=O)(=O)c1ccccc1` the percent span inhibition was “inactive”. For `O=C(NCCCN1CCN(CCCNC(=O)c2cc([N+](=O)[O-])ccc2Cl)CC1)c1cc([N+](=O)[O-])ccc1Cl`, the percent span inhibition was “inactive”. In the case of `COc1ccc2c3c(cccc13)N(C)N=C2C`, the percent span inhibition is reported as “inactive”. For `O=C(OCC(=O)c1ccc[nH]1)c1ccccc1`, the percent span inhibition was “inactive”. `Cn1c(CNc2nc(-c3ccccc3)cs2)nnc1SCC(=O)N1CCc2ccccc21` was tested, and the percent span inhibition was “inactive”. With `Cc1ccnc(NS(=O)(=O)c2ccc(NS(=O)(=O)c3cccs3)cc2)n1` the percent span inhibition was “inactive”. `CCOc1ccccc1-n1c(=O)c2ccccc2c2ccccc2c1=O` was tested, and the percent span inhibition was “inactive”. With `CCOC(=O)c1nc(Nc2ccc(Nc3ccccc3)cc2)c2ccccc2n1` the percent span inhibition was “inactive”. `O=C(O)c1ccccc1NSc1ccccc1[N+](=O)[O-]` was tested, and the percent span inhibition was “inactive”. For `c1coc(C2=Nc3cccc4cccc(c34)N2)c1`, the percent span inhibition was “inactive”.
